Reference: PubChem BioAssay (NCI)
Several values for one entry are separate records, joined by “and”; a condition that tells them apart may be missing. Identical values can stand only once.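 Compound exposure: 48 hours, 5 concentrations, 96-well plates. Here, GI50 denotes the concentration required for 50% inhibition of growth. TGI is the concentration that stops growth completely.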

Assays:
Assay in all cases: inhibition of tumour cell growth, NCI panel, 48 h
[1] = test system: TK-10 renal
[2] = test system: T-47D breast
[3] = test system: HS 578T breast
[4] = test system: HOP-92 NSCLC
[5] = test system: SK-MEL-2 melanoma
[6] = test system: NCI-H522 lung
[7] = test system: CCRF-CEM leukemia
[8] = test system: UO-31 renal

| Compound | GI50 [1] [µM] | TGI [1] [µM] | GI50 [2] [µM] | TGI [2] [µM] | GI50 [3] | TGI [3] [µM] | GI50 [4] [µM] | TGI [4] [µM] | GI50 [5] [µM] | TGI [5] [µM] | GI50 [6] | TGI [6] | GI50 [7] [µM] | TGI [7] [µM] | GI50 [8] [µM] | TGI [8] [µM] |
| --- | --- | --- | --- | --- | --- | --- | --- | --- | --- | --- | --- | --- | --- | --- | --- | --- |
| CCOC(=O)C1=C(C)N(Cc2ccc(Cl)cc2Cl)C2(O)C=CC(=O)C3=C(O)c4ccccc4C(=O)C312 (stereo not given) | 3.78 | 10.8 | 6.83 | 39.7 | 16.1 µM | 96.3 | 1.23 | 5.48 | 38.4 | > 100 | 11.4 µM | > 100 µM | – | – | – | – |
| C=C(CO)[C@@H]1CC[C@]2(COC3CCCCO3)CC[C@]3(C)[C@H](CC[C@@H]4[C@@]5(C)C=C(C=O)C(=O)C(C)(C)[C@@H]5CC[C@]43C)[C@@H]12 (stereo not given in full) | 0.257 | 0.688 | 0.332 | 1.65 | 0.318 µM | 0.997 | 0.147 | 0.312 | 0.448 | 1.82 | 0.205 µM | 0.487 µM | 0.211 | 1.12 | 0.187 | 0.433 |
| NS(=O)(=O)NCCNc1nonc1C(=Nc1ccc(F)c(Br)c1)NO | 29.8 | > 100 | 35.1 | > 100 | 30.3 µM | > 100 | 23.6 | 86.2 | 27.8 | 97 | 36.2 µM | 97.5 µM | 49.8 | > 100 | 24.8 | > 100 |
| NS(=O)(=O)c1ccc(N(/C=C/C(=O)C(F)(F)F)Cc2ccc(Cl)cc2)cc1 | 23.5 | 55.8 | 20.8 | 97.5 | 38.1 µM | > 100 | 16.1 | 40.9 | 27.2 | 62 | 12.6 µM | 38.4 µM | 16 | 40.3 | 15.8 | 44.6 |
| CN(CC(=O)Nc1nc2ccccc2[nH]1)S(=O)(=O)c1ccc(Cl)cc1 | > 100 | > 100 | > 100 | > 100 | 65 µM | > 100 | > 100 | > 100 | 2.92 | > 100 | > 100 µM | > 100 µM | > 100 | > 100 | > 100 | > 100 |
| CCC(=O)Nc1ccc(C)c(-c2ccc(C(=O)NCC3CC3)cc2)c1 | > 25 | > 25 | 14.6 | > 25 | > 25 µM | > 25 | > 25 | > 25 | > 25 | > 25 | > 25 µM | > 25 µM | > 25 | > 25 | > 25 | > 25 |
| O=C(Nc1cccc(-c2ccc(Cl)c(C(F)(F)F)c2)c1)C1CCN(Cc2cccc3cccnc23)CC1 | 1.63 | 3.16 | 1.61 | 3.6 | 2.14 µM | 4.94 | 1.36 | 2.83 | 1.99 | 3.85 | 1.73 µM | 3.68 µM | 2.19 | 5.85 | 1.25 | 2.52 |
| C/C(O)=C(\C#N)C(=O)Nc1ccc(C(F)(F)F)cc1 | > 100 | > 100 | 92 | > 100 | 39.1 µM | > 100 | 13.4 | > 100 | 73.2 | > 100 | – | – | 18.5 | > 100 | 18.1 | > 100 |
| COc1cc(C2=N/C(=C/c3cccs3)C(=O)O2)cc(OC)c1OC | – | > 100 | – | > 100 | – | > 100 | – | > 100 | – | > 100 | – | > 100 µM | – | > 100 | – | – |
| Cc1ccc(C(=O)/C(=C\c2ccc([N+](=O)[O-])cc2)S(=O)Cc2ccc(Cl)cc2)cc1 (stereo not given) | 1.86 | 3.89 | 1.51 | 3.37 | 2.48 µM | 7.39 | 1.64 | 3.45 | 1.96 | 4.15 | 1.72 µM | 3.18 µM | 0.635 | > 100 | 1.41 | 2.78 |
| CC(C)=CCC/C(C)=C\CCC1(C)OC(=O)C2CC21 (stereo not given) | – | > 100 | – | > 100 | > 100 µM and 36.5 µM | > 100 | – | – | – | > 100 | 52.4 µM and 19.2 µM | > 100 µM and 47.1 µM | – | – | – | > 100 |
| Nc1ccc(-c2cccs2)cc1NC(=O)c1ccc(CCCC(=O)Nc2ccc(C3CC3N)cc2)cc1 (stereo not given) | 2.44 | 39.2 | 1.75 | 4.82 | 7.93 µM | > 100 | 11 | > 100 | 7.28 | > 100 | – | – | – | – | 23.3 | > 100 |
| Oc1c(Cl)cc(Cl)cc1C(c1cc(Cl)cc(Cl)c1O)C(Cl)(Cl)Cl | 4.26 | 16 | 2.39 | 11.3 | 2.28 µM | 10.4 | 1.52 | 5.94 | 2.72 | 12 | 0.964 µM | 26.7 µM | 2.86 | 24.8 | – | – |
| [N-]=[N+]=NCCCn1c2c(c3ccc([N+](=O)[O-])cc3c1=O)C(=O)c1cc(F)ccc1-2 | 16.7 | > 100 | 0.295 | 3.08 | 36.5 µM | > 100 | – | – | 9.24 | > 75.1 | 0.853 µM | 12.2 µM | 0.432 | 3.88 | 0.807 | 12.6 |
| O=C(Nc1cccc(Cl)c1)c1cccc(NC2=C(Cl)C(=O)N(Cc3ccccc3)C2=O)c1 | – | – | > 100 | > 100 | > 100 µM | > 100 | 16.1 | > 100 | 26.7 | 68.6 | 18.8 µM | 53 µM | 7.2 | > 100 | 36.4 | > 100 |
| Fc1cccc(-n2ccc(-c3ccccc3)nc2=S)c1 | 18.2 | 36 | – | – | 17.7 µM | 37.4 | 0.862 | 41.6 | > 100 | > 100 | 22.7 µM | 64.5 µM | > 85.3 | > 100 | 15.1 | 30 |
| CN(C)CCNc1c2ccccc2nc2oc3ccccc3c12 | 5.86 | 55.5 | 4.72 | 26.7 | 4.6 µM | 20.1 | – | – | 12.2 | 31.4 | 4.6 µM | 18.3 µM | – | 0.0412 | 4.91 | 46.9 |
| N#Cc1cc(S(=O)(=O)Nc2nnc(-c3ccccc3)c(-c3ccccc3)n2)c(SCc2ccccc2)cc1Cl | 22.9 | 46.2 | – | – | 22.4 µM | 63.3 | 18.4 | 58.7 | 41.8 | > 100 | 44.5 µM | > 100 µM | 7.06 | > 100 | 26.8 | 71.3 |
| O=NNc1ccc(Sc2ccc(NN=O)cn2)nc1 | – | > 100 | – | > 100 | – | > 100 | – | – | – | – | – | > 100 µM | – | > 100 | – | > 100 |
| CCn1c(-c2nonc2N)nc2c(C#CC(C)(C)O)ncc(OC[C@H]3CCCNC3)c21 | 2.03 | 42.6 | – | – | 2.58 µM | 59.5 | 9.73 | 36.8 | 7.57 | 23 | 12.2 µM | 33.2 µM | 0.335 | 47.2 | > 38.7 | > 100 |
| CCCCCCCCCCCCCCCCCCOCC(CCP(=O)(CP(=O)(O)O)Oc1ccccc1)OCCCCCCCCCCCCCCCCCC (stereo not given) | – | > 100 | – | > 100 | – | > 100 | – | > 100 | – | – | – | > 100 µM | – | > 100 | – | – |
| CCCN(CCC)c1ccc(/C=N/NC(=O)c2cccnc2)c(OC)c1 | 28.7 | 90.1 | 17.3 | 50.8 | 21.7 µM | 99.3 | 13.4 | 61.8 | – | – | 20.3 µM | 56.9 µM | 25.5 | > 100 | 17.4 | 71.6 |
| COc1cc(-c2csc(NC(=O)Nc3ccc(C(F)(F)F)cc3)n2)cc(OC)c1OC | – | – | 1.97 | 7.65 | 2.17 µM | 5.47 | 1.61 | 4.73 | 2.43 | 5.81 | 1.9 µM | 5.88 µM | 3.49 | 18.9 | 1.77 | 5.29 |
| NS(=O)(=O)CC1CC[CH-]CC1.[Cl-].[Cl-].[Cl-].[Cl-].[Cl-].[Sb+5].c1ccncc1 | > 100 | > 100 | > 100 | > 100 | > 100 µM | > 100 | > 100 | > 100 | > 100 | > 100 | > 100 µM | > 100 µM | – | – | > 100 | > 100 |
| CO/N=C(\COc1ccc2oc(-c3ccccc3)cc(=O)c2c1)c1ccc(OC)cc1 | 41.4 | > 100 | 22.8 | 63.8 | 35.1 µM | > 100 | – | – | 31 | > 100 | 17.8 µM | 37.4 µM | 29.7 | 74.8 | 22.8 | 58.5 |
